Source: patent publication US9074289B2, “Environmentally friendly corrosion inhibitor” (NALCO COMPANY, priority 2011, dated 2015)

Assays:
Skeletonema costatum = experiment: Acute aquatic toxicity, ISO 10253; assay type: in vivo; settings: Hec50, 72 h, Method: ISO 10253
Description: (§1) (i) acute toxicity to the most sensitive marine species (skeletonema costatum) must be greater than EC50 of 10 mg/L; (ii) bioaccumulation potential (as indicated by Log Pow, the octanol-water partition coefficient) must be below 3 or the molecular weight must be greater than 700; and (iii) biodegradation in 28 days is greater than 60%. Corrosion inhibitor intermediates such as the quaternary ammonium salt were tested for their level of acute aquatic toxicity (Table 9), Log Pow (Table 10), and their ability to biodegrade in 28 days (Table 10).

[1] = Log Pow (octanol-water partition coefficient), OECD 117; assay type: physicochemical; settings: n-octanol/water; Method: OECD 117
Source text: The bioaccumulation potential of chemical substances has generally been determined from the n-octanol/water partition coefficient (expressed as log Pow) and the bioconcentration factor. The log Pow represents the ratio of a material that dissolves or disperses in octanol (the oil phase) versus water. This coefficient is used as a chemical surrogate for bioaccumulative potential. A log Pow of less than ten is preferred, a log Pow of less than six is more preferred, and a log Pow of less than three is most preferred.
as §1

[2] = Acute aquatic toxicity, ISO 146669; settings: Acartia tonsa, in vivo, Method: ISO 146669
Description: as §1

Corophium volutator = experiment: Acute aquatic toxicity, PARCOM; assay type: in vivo; settings: Method: PARCOM
Description: as §1

[3] = Biodegradation in 28 days, Marine BODIS; settings: Method: Marine BODIS
Source text: Biodegradation is the chemical breakdown of a material by microorganisms into nutrients that can be used by other organisms. Generally, a complex molecule can be broken down into carbon dioxide, water, microbial biomass, and/or inorganic salts. A biodegradation of 10% or greater is preferred, biodegradation of 20% or greater is more preferred, and a biodegradation of 60% or greater is most preferred.
as §1

Row | SMILES | EC50 (Skeletonema costatum) [µg/mL] | chromatographic logP [1] | LC50 at 48 h [2] [µg/mL] | Corophium volutator 10 d LC50 (Corophium volutator) [mg/kg] | Biodegradation (28 days) [3] [%^7]
1 | CCOC(=O)c1cc[n+](Cc2cccc3ccccc23)cc1.[Cl-] [Compound 1] | > 10 | 2.7 |  |  | 
2 | NC(=O)c1ccc[n+](Cc2cccc3ccccc23)c1.[Cl-] [Compound 4] |  | 2.1 | 105 | 6116.15 | 40
